The values below are quoted from earlier work in patent publication US12624058B2, “Promoiety strategy to enhance drug activity” (UNIVERSITY OF SOUTHERN CALIFORNIA, priority 2020, dated 2026).

For one data set, the system named is multiple Ad types. To be noted: cell culture; read-out: EC50, replication of multiple Ad types.
For data set [1] the following is noted: in vivo.
For the next data set, the system named is Ad5. To be noted: immunosuppressed Syrian hamster model.
The conditions of data set [2]: in vivo. This is another data set of the same source.

The term EC50 denotes the midpoint of the concentration-response curve. For `CCCCCCCCCCCCCCCCOCCCOP(=O)(O)CO[C@H](CO)Cn1ccc(N)nc1=O` [BCV], in the data set on multiple Ad types, the EC50 is ~20 nM. In data set [1], the nephrotoxicity result was “little or no nephrotoxicity”. In addition, in the data set with Ad viremia (phase II clinical trial), the GI side effect result is listed as “symptomatic GI irritation was observed”. In addition, the “reduction of Ad viremia” value in the data set with Ad viremia (preemptive treatment, pediatric and adult patients) is “reduced Ad viremia in some of these patients however, the result was not statistically significant”. The “efficacy against Ad5 replication and pathogenesis” value in the data set with Ad5 is on record as “effective”.

Regarding `Nc1ccn(C[C@@H](CO)OCP(=O)(O)O)c(=O)n1` [CDV, (S)-1-(3-hydroxy-2-phosphonomethoxypropyl)cytosine], the oral bioavailability in data set [2] is < 5%. Moreover, the nephrotoxicity entry in data set [1] was “causes nephrotoxicity”. Also, the “efficacy against Ad5 replication and pathogenesis” value in the data set on Ad5 was “effective”.
